Holding throughout (format): biochemical
In one assay the target is LSD1 (Homo sapiens (Human), UniProt O60341). Put plainly: TR-FRET assay for LSD1 (Perkin Elmer). The procedure: LSD1 enzyme was produced in house. Tranylcypromine (TCP), LSD1 inhibitor was procured from Selleckchem. LSD1 enzyme, TCP and Biotinylated peptide substrate were diluted in assay buffer just before use. 2× inhibitor (10 μL, diluted in assay buffer) or Assay Buffer, and 5 nM enzyme were added to a 96 well plate and incubated at room temperature for 30 min. […] Stop Solution containing 300 μM tranylcypromine in 1×LANCE Detection Buffer was added to the wells and incubated for 5 min at RT. Then, Detection mixture containing 2 nM Eu-Ab and 50 nM ULight-Streptavidin in 1×LANCE Detection Buffer was prepared and added to the reaction mixture. This mixture was incubated for 1 hour at room temperature.
A general note: Time-resolved FRET reads energy transfer from a long-lived donor to a nearby acceptor.

The next assay addresses HDAC6 (Homo sapiens (Human), UniProt Q9UBN7). Put plainly: Histone deacetylase assay (BPS Biosciences), HDAC6. To be noted: human recombinant enzyme. The procedure: Histone deacetylase assay was done as per manufacturer's instructions. […] Fluorescence was measured at an excitation wavelength of 350-380 nm and emission wavelength of 440-480 nm.
For a further assay, the target named is HDAC1 (Homo sapiens (Human), UniProt Q13547). Put plainly: Histone deacetylase assay (BPS Biosciences), HDAC1. Particulars: human recombinant enzyme. The procedure: Histone deacetylase assay was done as per manufacturer's instructions. Briefly, assay buffer, 200 uM HDAC substrate (fluorogenic HDAC acetylated peptide substrate for class I HDACs (HDACs 1, 2 and 3) and class 2b HDACs (HDACs 6 and 10) and 1% BSA are taken as a master mixture and aliquoted as 40 uL per well. Compounds (10×) were diluted in assay buffer and were added to respective wells of a black 96 well plate. For HDAC1 (1.4 ng/μL) and for HDAC6 (7 ng/μL) human recombinant enzyme was thawed on ice and 5 μL of respective enzyme was added per well. The plate was incubated at 37° C. for 1 hour. Developer solution was then added (50 μL per well) and incubated at room temperature for 10 minutes. Fluorescence was measured at an excitation wavelength of 350-380 nm and emission wavelength of 440-480 nm.
HDAC1, sequence (Q13547 whole entry): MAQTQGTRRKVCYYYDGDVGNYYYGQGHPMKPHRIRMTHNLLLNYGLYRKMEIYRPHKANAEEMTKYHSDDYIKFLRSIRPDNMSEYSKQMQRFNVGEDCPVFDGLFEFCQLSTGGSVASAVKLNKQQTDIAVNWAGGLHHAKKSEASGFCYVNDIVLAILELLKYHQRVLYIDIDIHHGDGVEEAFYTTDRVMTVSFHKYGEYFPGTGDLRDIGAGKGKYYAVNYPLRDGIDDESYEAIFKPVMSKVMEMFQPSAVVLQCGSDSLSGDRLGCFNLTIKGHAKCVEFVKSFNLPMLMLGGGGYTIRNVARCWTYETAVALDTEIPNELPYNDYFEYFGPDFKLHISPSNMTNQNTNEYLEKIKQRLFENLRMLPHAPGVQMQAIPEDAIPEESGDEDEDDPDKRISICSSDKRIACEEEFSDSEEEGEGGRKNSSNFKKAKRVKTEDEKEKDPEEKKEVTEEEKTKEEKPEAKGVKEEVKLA

Where a name gives a salt, the structure may show the parent alone.

The results in this text go back to patent publication US20250162994A1, “DUAL LSD1/HDAC INHIBITORS” (JUBILANT EPICORE LLC, priority 2022, published 2025).

HDAC6, sequence (Q9UBN7 whole entry): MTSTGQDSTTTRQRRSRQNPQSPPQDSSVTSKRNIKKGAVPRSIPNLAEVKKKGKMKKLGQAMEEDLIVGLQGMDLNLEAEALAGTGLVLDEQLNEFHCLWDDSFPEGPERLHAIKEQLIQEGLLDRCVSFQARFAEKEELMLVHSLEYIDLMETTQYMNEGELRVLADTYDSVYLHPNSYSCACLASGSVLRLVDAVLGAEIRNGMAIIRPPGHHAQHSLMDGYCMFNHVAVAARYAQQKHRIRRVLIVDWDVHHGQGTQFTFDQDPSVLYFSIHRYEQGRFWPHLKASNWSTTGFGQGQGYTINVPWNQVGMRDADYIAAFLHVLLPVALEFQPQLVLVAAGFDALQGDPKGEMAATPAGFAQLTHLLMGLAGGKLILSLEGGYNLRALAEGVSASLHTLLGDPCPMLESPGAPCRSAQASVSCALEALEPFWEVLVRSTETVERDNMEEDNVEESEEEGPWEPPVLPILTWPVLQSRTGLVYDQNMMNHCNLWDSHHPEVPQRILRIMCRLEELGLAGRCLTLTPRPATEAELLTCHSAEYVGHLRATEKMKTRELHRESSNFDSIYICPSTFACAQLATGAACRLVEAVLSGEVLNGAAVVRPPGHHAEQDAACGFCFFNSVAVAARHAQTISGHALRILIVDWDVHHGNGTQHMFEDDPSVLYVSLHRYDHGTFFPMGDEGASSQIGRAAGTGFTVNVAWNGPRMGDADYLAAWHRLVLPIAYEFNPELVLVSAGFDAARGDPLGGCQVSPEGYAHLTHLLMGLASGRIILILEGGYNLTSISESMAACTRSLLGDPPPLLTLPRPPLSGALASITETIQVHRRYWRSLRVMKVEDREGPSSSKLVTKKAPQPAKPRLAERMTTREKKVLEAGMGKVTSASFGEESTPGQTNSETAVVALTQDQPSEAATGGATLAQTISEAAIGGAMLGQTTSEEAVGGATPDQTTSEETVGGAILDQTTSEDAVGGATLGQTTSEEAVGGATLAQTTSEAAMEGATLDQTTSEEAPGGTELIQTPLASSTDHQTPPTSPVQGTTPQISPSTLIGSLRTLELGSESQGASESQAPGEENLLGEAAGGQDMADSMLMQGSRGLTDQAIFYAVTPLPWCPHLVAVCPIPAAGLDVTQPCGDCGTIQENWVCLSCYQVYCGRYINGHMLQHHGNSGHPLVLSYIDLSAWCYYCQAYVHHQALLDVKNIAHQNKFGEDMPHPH

On to `Cc1noc(C)c1-c1ccc([C@H]2C[C@@H]2NCC2CCN(Cc3ccc(C(=O)Nc4ccccc4N)cc3)CC2)cc1` [Compound 28, N-(2-aminophenyl)-4-((4-((((1S,2R)-2-(4-(3,5-dimethylisoxazol-4-yl)phenyl)cyclopropyl)amino)methyl)piperidin-1-yl)methyl)benzamide], for which, at LSD1, the IC50 turned out to be 29 nM.
Regarding `Nc1ccccc1NC(=O)c1ccc(CCCN2CCC(CN[C@H]3C[C@@H]3c3ccc(F)c(F)c3)CC2)cc1` [Compound 26, N-(2-aminophenyl)-4-(3-(4-((((1S,2R)-2-(3,4-difluorophenyl)cyclopropyl)amino)methyl)piperidin-1-yl)propyl)benzamide], on HDAC6, the IC50 was over 10000 nM.
In turn, `Cc1noc(C)c1-c1ccc([C@@H]2C[C@H]2NCC2CCN(Cc3ccc(C(=O)Nc4ccccc4N)cc3)CC2)cc1` [Compound 27, N-(2-aminophenyl)-4-((4-((((1R,2S)-2-(4-(3,5-dimethylisoxazol-4-yl)phenyl)cyclopropyl)amino)methyl)piperidin-1-yl)methyl)benzamide] registered an IC50 against LSD1 of 6 nM.
`Nc1ccccc1NC(=O)c1ccc(CCCN2CCC(CN[C@@H]3C[C@H]3c3ccc(F)cc3)CC2)cc1` [Compound 15, N-(2-aminophenyl)-4-(3-(4-((((1R,2S)-2-(4-fluorophenyl)cyclopropyl)amino)methyl)piperidin-1-yl)propyl)benzamide]: the concentration for half-maximal inhibition (IC50) at HDAC1 was determined as 7720 nM.
Same read-out and setting: next, `Nc1ccccc1NC(=O)c1ccc(CCCN2CCC(CN[C@H]3C[C@@H]3c3ccc(F)cc3)CC2)cc1` [Compound 16, N-(2-aminophenyl)-4-(3-(4-((((1S,2R)-2-(4-fluorophenyl)cyclopropyl)amino)methyl)piperidin-1-yl)propyl)benzamide]: 295 nM.
`Nc1ccccc1NC(=O)c1ccc(Cn2cc(CN[C@@H]3C[C@H]3c3ccccc3)nn2)cc1` [Compound 29, N-(2-aminophenyl)-4-((4-((((1R,2S)-2-phenylcyclopropyl)amino)methyl)-1H-1,2,3-triazol-1-yl)methyl)benzamide] gave an IC50 at LSD1 of 671 nM.
On to `O=C(NO)c1ccc(CCCN2CCC(CN[C@H]3C[C@@H]3c3cnn(-c4ccccc4)c3)CC2)cc1` [Compound 4, N-hydroxy-4-(3-(4-((((1S,2R)-2-(1-phenyl-1H-pyrazol-4-yl)cyclopropyl)amino)methyl)piperidin-1-yl)propyl)benzamide], for which the IC50 against LSD1 was 5 nM; at HDAC6 it was 72 nM.
`Cn1cc(-c2ccc([C@H]3C[C@@H]3NCC3CCN(Cc4ccc(C(=O)Nc5ccccc5N)cc4)CC3)cc2)ccc1=O` [Compound 20, N-(2-aminophenyl)-4-((4-((((1S,2R)-2-(4-(1-methyl-6-oxo-1,6-dihydropvridin-3-yl)phenyl)cyclopropyl)amino)methyl)piperidin-1-yl)methyl)benzamide] displayed an IC50 against LSD1 of 20 nM.
Consider `O=C(NO)c1ccc(Cn2cc(CN[C@@H]3C[C@H]3c3ccccc3)cn2)cc1` [Compound 1, N-hydroxy-4-((4-((((1R,2S)-2-phenylcyclopropyl)amino)methyl)-1H-pyrazol-1-yl)methyl)benzamide hydrobromide], for which, on HDAC1, the IC50 is 923 nM.
Compound `Nc1ccccc1NC(=O)c1ccc(Cn2cc(CN[C@H]3C[C@@H]3c3ccc(F)cc3)nn2)cc1` [Compound 22, N-(2-aminophenyl)-4-((4-((((1S,2R)-2-(4-fluorophenyl)cyclopropyl)amino)methyl)-1H-1,2,3-triazol-1-yl)methyl)benzamide] yielded a 50% inhibitory concentration (IC50) against LSD1 of 854 nM.
Take `Nc1ccccc1NC(=O)c1ccc(CCCN2CCC(CN[C@H]3C[C@@H]3c3cnn(-c4ccccc4)c3)CC2)cc1` [Compound 24, N-(2-aminophenyl)-4-(3-(4-((((1S,2R)-2-(1-phenyl-1H-pyrazol-4-yl)cyclopropyl)amino)methyl)piperidin-1-yl)propyl)benzamide]: the IC50 amounted to 6 nM on LSD1 and 8600 nM on HDAC1.
Regarding `O=C(NO)c1ccc(/C=C/C(=O)N2CC(CN[C@@H]3C[C@H]3c3ccc(F)cc3)C2)cc1` [Compound 5, 4-((E)-3-(3-((((1R,2S)-2-(4-fluorophenyl)cyclopropyl)amino)methyl)azetidin-1-yl)-3-oxoprop-1-en-1-yl)-N-hydroxybenzamide], the IC50 at LSD1 came to 31 nM; on HDAC6, 84 nM.
For the compound `Cn1cc(-c2ccc([C@@H]3C[C@H]3NCC3CCN(Cc4ccc(C(=O)Nc5ccccc5N)cc4)CC3)cc2)ccc1=O` [Compound 19, N-(2-aminophenyl)-4-((4-((((1R,2S)-2-(4-(1-methyl-6-oxo-1,6-dihydropyridin-3-yl)phenyl)cyclopropyl)amino)methyl)piperidin-1-yl)methyl)benzamide], inhibition against LSD1 was half-maximal at 6 nM (IC50).
In the case of `Nc1ccccc1NC(=O)c1ccc(CCCN2CCC(CN[C@@H]3C[C@H]3c3cnn(-c4ccccc4)c3)CC2)cc1` [Compound 23, N-(2-aminophenyl)-4-(3-(4-((((1R,2S)-2-(1-phenyl-1H-pyrazol-4-yl)cyclopropyl)amino)methyl)piperidin-1-yl)propyl)benzamide], the IC50 on LSD1 stood at 10 nM; on HDAC1, 262 nM.
For `O=C(NO)c1ccc(/C=C/C(=O)N2CC(CN[C@H]3C[C@@H]3c3ccc(F)cc3)C2)cc1` [Compound 6, 4-((E)-3-(3-((((1S,2R)-2-(4-fluorophenyl)cyclopropyl)amino)methyl)azetidin-1-yl)-3-oxoprop-1-en-1-yl)-N-hydroxybenzamide], the concentration for half-maximal inhibition (IC50) is 147 nM against LSD1 and 144 nM at HDAC6.
As to `O=C(NO)c1ccc(CCCN2CCC(CN[C@@H]3C[C@H]3c3cnn(-c4ccccc4)c3)CC2)cc1` [Compound 3, N-hydroxy-4-(3-(4-((((1R,2S)-2-(1-phenyl-1H-pyrazol-4-yl)cyclopropyl)amino)methyl)piperidin-1-yl)propyl)benzamide], the half-maximal inhibitory concentration (IC50) at LSD1 amounted to 9 nM; on HDAC6 it was 88 nM.
As for `O=C(NO)c1ccc(Cn2cc(CN[C@H]3C[C@@H]3c3ccccc3)cn2)cc1` [Compound 2, N-hydroxy-4-((4-((((1S,2R)-2-phenylcyclopropyl)amino)methyl)-1H-pyrazol-1-yl)methyl)benzamide], the IC50 at HDAC1 was 1550 nM.
As for `CC(C)n1cc([C@@H]2C[C@H]2NCC2CCN(CCCc3ccc(C(=O)Nc4ccccc4N)cc3)CC2)cn1` [Compound 17, N-(2-aminophenyl)-4-(3-(4-((((1R,2S)-2-(1-isopropyl-1H-pyrazol-4-yl)cyclopropyl)amino)methyl)piperidin-1-yl)propyl)benzamide], the IC50 against LSD1 turned out to be 101 nM; at HDAC1 it was 1040 nM.
Turning to `CC(C)n1cc([C@H]2C[C@@H]2NCC2CCN(CCCc3ccc(C(=O)Nc4ccccc4N)cc3)CC2)cn1` [Compound 18, N-(2-aminophenyl)-4-(3-(4-((((1S,2R)-2-(1-isopropyl-1H-pyrazol-4-yl)cyclopropyl)amino)methyl)piperidin-1-yl)propyl)benzamide], the values for the IC50 against LSD1 and at HDAC1 were 139 nM and 2890 nM, respectively.
In turn, `Nc1ccccc1NC(=O)c1ccc(Cn2cc(CN[C@@H]3C[C@H]3c3ccc(F)cc3)nn2)cc1` [Compound 21, N-(2-aminophenyl)-4-((4-((((1R,2S)-2-(4-fluorophenyl)cyclopropyl)amino)methyl)-1H-1,2,3-triazol-1-yl)methyl)benzamide] showed an IC50 against LSD1 of 69 nM.

In general, IC50 refers to the concentration that gives 50% inhibition.
